Source: patent publication US20150079000A1, “Labelled Quinoxaline Derivatives as Multimodal Radiopharmaceuticals and Their Precursors” (INSTITUT NATIONAL DE LA SANTET DE LA RECHERCHE MEDICALE, priority 2012, published 2015)

Tests used:
[1] = test system: melanoma model B16BL6; assay: Internal radiotherapy with [131I](1), B16BL6 model; assay type: in vivo, mice
[2] = test system: SKMEL-3 human melanoma model; assay: Internal radiotherapy with [131I](1), SKMEL-3 model; assay type: in vivo, mice
Method: Compound (1) was labelled with iodine-131, at high specific activity, from the corresponding stannane precursor, as described in detail in example 8. The labeling was performed with a radiochemical yield of 80% and a radiochemical purity>99%. […] The antitumour activity of the compound [^131I](1) was also evaluated in SKMEL-3 human melanoma model after injections of 25 MBq of [^131I](1): Two groups of mice were used receiving two injections at day-33 and day-40 or three injections of at day-33, day-40 and day-47 post inoculation. Results were compared to control group injected with saline.

[3] = Calculation of absorbed dose to the tumour and organs (MIRD); assay type: in vivo, C57BL/6J mice; conditions: iodine 131
[4] = octanol/water (PBS buffer) partition coefficient (log D); assay type: physicochemical
[5] = test system: melanin polymers; assay: Biodistribution by secondary ion mass spectrometry (SIMS) analysis; assay type: in vivo, C57BL/6J mice; conditions: B16BL6 melanoma cells colony in lung, 1 h after i.v. 0.1 μmol/mice
Method: B16BL6 cells were injected intravenously into male C57BL/6J mice to obtain, within 12 days, tumour cell colonies in lungs mimicking pulmonary micrometastases. After i.v. administration of compound (1) (0.1 μmol/mice in 0.2 mL of a hydroalcoholic solution (5% v/v, 0.9% NaCl) per mouse), mice were killed 1 h post injection. Lungs were removed and small pieces of tissue including B16 melanoma colonies were isolated and fixed by slam freezing on an LN2-precooled metal mirror. Samples were dehydrated by freeze drying starting at −110 to −10° C. before embedding in Spurr resin. Serial sections of 0.4 μm thick were deposited on stainless steel holders for SIMS analysis or on glass slides for light microscopy observation.

## CCN(CCNC(=O)c1cnc2cc([131I])ccc2n1)CCOCCOCCOCCF [[^131I](1)]
[1]; B16BL6 melanoma model
  metastasis dissemination: inhibition of metastasis dissemination
[1]; B16BL6 tumours, two i.v. injections of 20 MBq at day-7 and day-11
  tumour doubling time: 2.9 ± 0.5 days
[1]; treated B16BL6 bearing-mice
  median survival time: 27 days
[2]; SKMEL-3 tumours, injections of 25 MBq once weekly for 2 or 3 weeks
  tumour doubling time: 26.5 ± 7.8 days
[2]; treated SKMEL-3 bearing-mice
  median survival time: 111 days
[3]; Adipose
  Biological half life (h): 38.28 h
  Effective half life: 47.78 h
[3]; Bladder (empty)
  Biological half life (h): 27.57 h
  Effective half life: 32.17 h
[3]; Blood
  Biological half life (h): 27.45 h
  Effective half life: 32.02 h
[3]; Brain
  Biological half life (h): 27.55 h
  Effective half life: 41.63 h
[3]; Colon with Faeces
  Biological half life (h): 28.48 h
  Effective half life: 26.92 h
[3]; Eyes
  Biological half life (h): 125.03 h
  Effective half life: 356.77 h
[3]; Heart
  Biological half life (h): 68.51 h
  Effective half life: 46.93 h
[3]; Kidney
  Biological half life (h): 27.60 h
  Effective half life: 32.22 h
[3]; Liver
  Biological half life (h): 25.87 h
  Effective half life: 29.89 h
[3]; Lung
  Biological half life (h): 37.73 h
  Effective half life: 34.21 h
[3]; Muscle
  Biological half life (h): 37.36 h
  Effective half life: 46.36 h
[3]; Pancreas
  Biological half life (h): 29.04 h
  Effective half life: 40.79 h
[3]; Skin
  Biological half life (h): 46.20 h
  Effective half life: 60.79 h
[3]; Small Bowels
  Biological half life (h): 23.67 h
  Effective half life: 26.99 h
[3]; Spleen
  Biological half life (h): 33.66 h
  Effective half life: 33.43 h
[3]; Stomach
  Biological half life (h): 27.36 h
  Effective half life: 31.89 h
[3]; Testes
  Biological half life (h): 27.57 h
  Effective half life: 32.16 h
[3]; Tumour
  Biological half life (h): 71.67 h
  Effective half life: 114.18 h
[3]; bones
  Biological half life (h): 12.92 h
  Effective half life: 13.85 h
[4]
  octanol/water (PBS buffer) partition coefficient (log D): 0.95±0.04

## CCN(CCNC(=O)c1cnc2cc(I)ccc2n1)CCOCCOCCOCCF [Compound 1, N-(12-ethyl-1-fluoro-3,6,9-trioxa-12-azatetradecan-14-yl)-6-iodoquinoxaline-2-carboxamide]
[5]
  colocalisation with melanin polymers (SIMS, CN− and iodine-127 signals): perfect colocalisation
